Biological target: His-tagged Human KRAS^G12D (Homo sapiens (Human), UniProt P01116, G12D)
Assay: HTRF KRAS G12D GTP binding assay
Details: displacement of GTP-Red tracer
Protocol: KRAS^G12D was used in this assay.
The ability of a test compound to bind to KRAS^G12D was measured by using an HTRF KRAS^G12D GTP Binding Kit (Cisbio, 63ADK000CB27PEG). […] 5 μL of compound solution was added to each well after serial dilution, followed by addition of 5 μL of GDP (50 nM) solution. After 30 minutes incubation at room temperature, 1×6His Eu cryptate antibody solution and GTP-Red tracer were added to the plate, then incubated for another 30 minutes. The HTRF signal was measured with a VICTOR Nivo multimode plate reader according to the manufacturer's instructions. The percent inhibition was calculated using the following formula: […]
(where the “Maximum Signal” are wells containing DMSO without inhibitor; the “Minimum Signal” are wells containing reference inhibitory component (GDP); the “Test compound signal” are wells containing test compound (inhibitor) at established concentrations).
IC50 was determined by fitting percent inhibition at each inhibitor concentration to the four-parameter nonlinear logistic equation using GraphPad Prism.

His-tagged Human KRAS^G12D, sequence (P01116-2 other isoform, or with tags, fused parts or gaps G12D): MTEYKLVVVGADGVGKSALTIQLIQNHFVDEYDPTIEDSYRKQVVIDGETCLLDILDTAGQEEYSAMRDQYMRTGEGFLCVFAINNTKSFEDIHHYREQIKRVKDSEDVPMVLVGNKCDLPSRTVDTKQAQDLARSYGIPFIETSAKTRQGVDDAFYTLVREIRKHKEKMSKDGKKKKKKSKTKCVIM

Row | IC50 | SMILES
1 | > 10 µM | CCc1c(F)ccc2cc(O)cc(-c3ncc4c(N5CC(F)(F)C[C@H]5CO)nc(OC[C@@]56CCCN5C[C@H](F)C6)nc4c3F)c12 [Compound 21]
2 | > 1 µM | CCc1c(F)ccc2cc(O)cc(-c3ncc4c(N5C[C@@H](N)C[C@H]5CO)nc(OC[C@@]56CCCN5C[C@H](F)C6)nc4c3F)c12 [Compound 33]
3 | > 1 µM | CCc1c(F)ccc2cc(O)cc(-c3ncc4c(N5CCC[C@H]5C(=O)O)nc(OC[C@@]56CCCN5C[C@H](F)C6)nc4c3F)c12 [Compound 8]
4 | > 1 µM | CCc1c(F)ccc2cc(O)cc(-c3ncc4c(N5CC6(CC(=O)C6)C5)nc(OC[C@@]56CCCN5C[C@H](F)C6)nc4c3F)c12 [Compound 44]
5 | > 1 µM | CCc1c(F)ccc2cc(O)cc(-c3ncc4c(N5CCC6(CNC(=O)O6)C5)nc(OC[C@@]56CCCN5C[C@H](F)C6)nc4c3F)c12 (some centres unmarked) [Compound 43]
6 | 0.0312 µM | CCc1c(F)ccc2cc(O)cc(-c3ncc4c(N5CCC[C@]6(CCO6)C5)nc(OCC5(CN6CCC7(CCC7)CC6)CC5)nc4c3F)c12 [Compound 23a]
7 | 1.35 µM | CCc1c(F)ccc2cc(O)cc(-c3ncc4c(N5CCC[C@H]5CN)nc(OC[C@@]56CCCN5C[C@H](F)C6)nc4c3F)c12 [Compound 23]
8 | 0.652 µM | CCc1c(F)ccc2cc(O)cc(-c3ncc4c(N5CCC[C@@H](OC)C5)nc(OC[C@@]56CCCN5C[C@H](F)C6)nc4c3F)c12 [Compound 5a]
9 | 0.979 µM | CCc1c(F)ccc2cc(O)cc(-c3ncc4c(N5CC6CCC(C5)O6)nc(OC[C@@]56CCCN5C[C@H](F)C6)nc4c3F)c12 [Compound 13]
10 | 0.416 µM | CCc1c(F)ccc2cc(O)cc(-c3c(Cl)cc4c(N5CCCC6(CCO6)C5)nc(OC[C@@]56CCCN5C[C@H](F)C6)nc4c3F)c12 (some centres unmarked) [Compound 92]
11 | 0.163 µM | CCc1c(F)ccc2cc(O)cc(-c3ncc4c(N5CCCC[C@@H](N)C5)nc(OC[C@@]56CCCN5C[C@H](F)C6)nc4c3F)c12 [Compound 38]
12 | > 10 µM | CCc1c(F)ccc2cc(O)cc(-c3ncc4c(N5CCC[C@H]5CN5CCCC5)nc(OC[C@@]56CCCN5C[C@H](F)C6)nc4c3F)c12 [Compound 30]
13 | > 10 µM | CCc1c(F)ccc2cc(O)cc(-c3ncc4c(N5CC(C)(O)C5)nc(OC[C@@]56CCCN5C[C@H](F)C6)nc4c3F)c12 [Compound 18]
14 | > 1 µM | CCc1c(F)ccc2cc(O)cc(-c3ncc4c(N5CCCC6(CCOC6)C5)nc(OC[C@@]56CCCN5C[C@H](F)C6)nc4c3F)c12 (some centres unmarked) [Compound 64]
15 | 0.0132 µM | CCc1c(F)ccc2cc(O)cc(-c3ncc4c(N5CCC[C@]6(CCO6)C5)nc(OCC5(CN6CCC6)CC5)nc4c3F)c12 [Compound 13a]
16 | > 10 µM | CCc1c(F)ccc2cc(O)cc(-c3ncc4c(N5CCN(C(C)=O)[C@H](C)C5)nc(OC[C@@]56CCCN5C[C@H](F)C6)nc4c3F)c12 [Compound 31]
17 | > 1 µM | CCc1c(F)ccc2cc(O)cc(-c3ncc4c(N5CCC6(CCO6)C5)nc(OC[C@@]56CCCN5C[C@H](F)C6)nc4c3F)c12 (some centres unmarked) [Compound 62]
18 | > 1 µM | CCc1c(F)ccc2cc(O)cc(-c3ncc4c(N5C[C@H](N)C[C@H]5CO)nc(OC[C@@]56CCCN5C[C@H](F)C6)nc4c3F)c12 [Compound 55]
19 | 0.557 µM | CCc1c(F)ccc2cc(O)cc(-c3ncc4c(N5CCCCCC5)nc(OCC5(CN(C)C)CC5)nc4c3F)c12 [Compound 43a]
20 | > 1 µM | N#Cc1c(N)sc2c(F)ccc(-c3c(Cl)cc4c(N5CCC[C@]6(CCO6)C5)nc(OCC5(CN6CCCCC6)CC5)nc4c3F)c12 [Compound 48a]
21 | > 1 µM | CCc1c(F)ccc2cc(O)cc(-c3ncc4c(N5C[C@H]6C[C@@H]5[C@@H](O)C6)nc(OC[C@@]56CCCN5C[C@H](F)C6)nc4c3F)c12 [Compound 37]

Row | SMILES | IC50
22 | CCc1c(F)ccc2cc(O)cc(-c3ncc4c(N5CC6CC(CO)(C6)C5)nc(OC[C@@]56CCCN5C[C@H](F)C6)nc4c3F)c12 [Compound 7a] | > 1 µM
23 | CCc1c(F)ccc2cc(O)cc(-c3ncc4c(N5C6CCC5CC6)nc(OC[C@@]56CCCN5C[C@H](F)C6)nc4c3F)c12 [Compound 15] | > 1 µM

Source: US20240239813A1, “KRAS INHIBITORS AND PHARMACEUTICAL USES THEREOF” (RISEN (SUZHOU) PHARMA TECH CO., LTD., priority 2022, published 2024)
